In patent publication US9079974B2, “GH-RH analogs with potent agonistic effects” (The University of Miami, priority 2011, dated 2015):
Square brackets hold non-standard residues; d marks the D form. Peptide text beside a SMILES is read from it. * marks the point of attachment. Phe(F5) = N[C@@H](Cc1c(F)c(F)c(F)c(F)c1F)C(=O)O; Desaminotyrosyl = O=C(CCc1ccc(O)cc1)*; NMeY = CN[C@@H](Cc1ccc(O)cc1)C(=O)O; Agmatine = N=C(N)NCCCCN*; Nle = CCCC[C@H](N)C(=O)O; Orn = NCCC[C@H](N)C(=O)O; Abu = CC[C@H](N)C(=O)O; GABA = NCCCC(=O)O

Molecular target: T1, GHRH receptor (Homo sapiens, UniProt Q02643)
T1 construct: Normal human pituitaries were purchased from the National Hormone and Peptide Program; tissue National Hormone and Peptide Program (A. F. Parlow); host or cells: normal human pituitary, membrane fraction
T1 sequence (Q02643 23-423): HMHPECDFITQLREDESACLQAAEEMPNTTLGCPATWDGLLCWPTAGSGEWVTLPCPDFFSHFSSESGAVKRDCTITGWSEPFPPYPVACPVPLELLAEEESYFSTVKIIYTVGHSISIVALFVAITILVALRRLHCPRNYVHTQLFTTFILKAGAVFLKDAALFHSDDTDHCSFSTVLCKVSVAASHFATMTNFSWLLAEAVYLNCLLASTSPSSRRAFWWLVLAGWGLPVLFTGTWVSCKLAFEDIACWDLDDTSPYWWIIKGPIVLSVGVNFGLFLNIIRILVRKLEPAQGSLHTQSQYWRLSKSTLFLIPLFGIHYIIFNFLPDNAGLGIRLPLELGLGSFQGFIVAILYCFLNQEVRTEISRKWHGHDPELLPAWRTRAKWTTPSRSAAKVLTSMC
Test: GHRH receptor binding, 125I-labeled JV-1-42 ligand competition, human pituitary membrane homogenates (Table 7)
Conditions: 125I-labeled JV-1-42, human pituitary membranes
Protocol: Preparation of human pituitary membrane fraction and receptor binding of GHRH agonists were performed as previously described, by using a sensitive in vitro ligand competition assay based on binding of ^125I-labeled JV-1-42 to human pituitary membrane homogenates. Normal human pituitaries were purchased from the National Hormone and Peptide Program (A. F. Parlow, Los Angeles, County Harbor-UCLA Medical Center, Torrance, Calif.).

Row | IC50 [nM] | SMILES
1 | 0.86 | CCCC[C@H](NC(=O)[C@@H](NC(=O)[C@H](CC(=O)O)NC(=O)[C@H](CCC(N)=O)NC(=O)[C@H](CC(C)C)NC(=O)[C@H](CC(C)C)NC(=O)[C@H](CCCN)NC(=O)[C@H](CCCNC(=N)N)NC(=O)[C@H](C)NC(=O)[C@H](CO)NC(=O)[C@H](CC(C)C)NC(=O)[C@H](CCC(N)=O)NC(=O)[C@H](CC)NC(=O)[C@H](CC(C)C)NC(=O)[C@@H](NC(=O)[C@H](CCCN)NC(=O)[C@H](CCCNC(=N)N)NC(=O)[C@H](Cc1ccc(O)cc1)NC(=O)[C@H](CO)NC(=O)[C@H](CC(N)=O)NC(=O)[C@@H](NC(=O)[C@H](Cc1ccccc1)NC(=O)[C@@H](NC(=O)[C@H](C)NC(=O)[C@H](CC(=O)O)NC(=O)[C@@H](C)NC(=O)CCc1ccc(O)cc1)[C@@H](C)CC)[C@@H](C)O)C(C)C)[C@@H](C)CC)C(=O)N[C@@H](CO)C(=O)N[C@@H](CCCNC(=N)N)C(=O)N[C@@H](CCC(N)=O)C(=O)NCCCC(N)=O [Peptide P-29702, [Dat^1, D-Ala^2, Orn^12, Abu^15, Orn^21, Nle^27, Gln-Gab^30]hGH-RH(1-30)NH2] (Desaminotyrosyl-[dA]DAIFTNSYR[Orn]VL[Abu]QLSAR[Orn]LLQDI[Nle]SRQ[GABA]-NH2)
2 | 1.56 | CCCC[C@H](NC(=O)[C@@H](NC(=O)[C@H](CC(=O)O)NC(=O)[C@H](CCC(N)=O)NC(=O)[C@H](CC(C)C)NC(=O)[C@H](CC(C)C)NC(=O)[C@H](CCCN)NC(=O)[C@H](CCCNC(=N)N)NC(=O)[C@H](C)NC(=O)[C@H](CO)NC(=O)[C@H](CC(C)C)NC(=O)[C@H](CCC(N)=O)NC(=O)[C@H](CC)NC(=O)[C@H](CC(C)C)NC(=O)[C@@H](NC(=O)[C@H](CCCN)NC(=O)[C@H](CCCNC(=N)N)NC(=O)[C@H](Cc1ccc(O)cc1)NC(=O)[C@H](CO)NC(=O)[C@H](CC(N)=O)NC(=O)[C@@H](NC(=O)[C@H](Cc1c(F)c(F)c(F)c(F)c1F)NC(=O)[C@@H](NC(=O)[C@H](C)NC(=O)[C@H](CC(=O)O)NC(=O)[C@@H](C)NC(=O)[C@H](Cc1ccc(O)cc1)NC)[C@@H](C)CC)[C@@H](C)O)C(C)C)[C@@H](C)CC)C(=O)N[C@@H](CO)C(=O)N[C@@H](CCCNC(=N)N)C(=O)NCCCC(=O)NC [Peptide P-27414, [N—Me-Tyr^1, D-Ala^2, Fpa5^6, Orn^12, Abu^15, Orn^21, Nle^27, Gab^30]hGH-RH(1-30)NH—CH3] (H-[NMeY][dA]DAI[Phe(F5)]TNSYR[Orn]VL[Abu]QLSAR[Orn]LLQDI[Nle]SR[GABA]-NHMe)
3 | 1.47 | CCCC[C@H](NC(=O)[C@@H](NC(=O)[C@H](CC(=O)O)NC(=O)[C@H](CCC(N)=O)NC(=O)[C@H](CC(C)C)NC(=O)[C@H](CC(C)C)NC(=O)[C@H](CCCN)NC(=O)[C@H](CCCNC(=N)N)NC(=O)[C@H](C)NC(=O)[C@H](CO)NC(=O)[C@H](CC(C)C)NC(=O)[C@H](CCC(N)=O)NC(=O)[C@H](CC)NC(=O)[C@H](CC(C)C)NC(=O)[C@@H](NC(=O)[C@H](CCCN)NC(=O)[C@H](CCCNC(=N)N)NC(=O)[C@H](Cc1ccc(O)cc1)NC(=O)[C@H](CO)NC(=O)[C@H](CC(N)=O)NC(=O)[C@@H](NC(=O)[C@H](Cc1ccccc1)NC(=O)[C@@H](NC(=O)[C@H](C)NC(=O)[C@H](CC(=O)O)NC(=O)[C@@H](C)NC(=O)[C@H](Cc1ccc(O)cc1)NC)[C@@H](C)CC)[C@@H](C)O)C(C)C)[C@@H](C)CC)C(=O)N[C@@H](CC(=O)O)C(=O)N[C@@H](CCCNC(=N)N)C(=O)NCC [Peptide P-28421, [N—Me-Tyr^1, D-Ala^2, Orn^12, Abu^15, Orn^21, Nle^27, Asp^28]hGH-RH(1-29)NH—CH2—CH3] (H-[NMeY][dA]DAIFTNSYR[Orn]VL[Abu]QLSAR[Orn]LLQDI[Nle]DR-NHEt)
4 | 0.52 | CCCC[C@H](NC(=O)[C@@H](NC(=O)[C@H](CC(=O)O)NC(=O)[C@H](CCC(N)=O)NC(=O)[C@H](CC(C)C)NC(=O)[C@H](CC(C)C)NC(=O)[C@H](CCCN)NC(=O)[C@H](CCCNC(=N)N)NC(=O)[C@H](C)NC(=O)[C@H](CO)NC(=O)[C@H](CC(C)C)NC(=O)[C@H](CCC(N)=O)NC(=O)[C@H](CC)NC(=O)[C@H](CC(C)C)NC(=O)[C@@H](NC(=O)[C@H](CCCN)NC(=O)[C@H](CCCNC(=N)N)NC(=O)[C@H](Cc1ccc(O)cc1)NC(=O)[C@H](CO)NC(=O)[C@H](CCC(N)=O)NC(=O)[C@@H](NC(=O)[C@H](Cc1ccccc1)NC(=O)[C@@H](NC(=O)[C@H](C)NC(=O)[C@H](CC(=O)O)NC(=O)[C@@H](C)NC(=O)[C@H](Cc1ccc(O)cc1)NC)[C@@H](C)CC)[C@@H](C)O)C(C)C)[C@@H](C)CC)C(=O)N[C@@H](CC(=O)O)C(=O)N[C@@H](CCCNC(=N)N)C(=O)NCC [Peptide P-28420, [N—Me-Tyr^1, D-Ala^2, Gln^8, Orn^12, Abu^15, Orn^21, Nle^27, Asp^28]hGH-RH(1-29)NH—CH2—CH3] (H-[NMeY][dA]DAIFTQSYR[Orn]VL[Abu]QLSAR[Orn]LLQDI[Nle]DR-NHEt)
5 | 2.74 | CCCC[C@H](NC(=O)[C@@H](NC(=O)[C@H](CC(=O)O)NC(=O)[C@H](CCC(N)=O)NC(=O)[C@H](CC(C)C)NC(=O)[C@H](CC(C)C)NC(=O)[C@H](CCCN)NC(=O)[C@H](CCCNC(=N)N)NC(=O)[C@H](C)NC(=O)[C@H](CO)NC(=O)[C@H](CC(C)C)NC(=O)[C@H](CCC(N)=O)NC(=O)[C@H](CC)NC(=O)[C@H](CC(C)C)NC(=O)[C@@H](NC(=O)[C@H](CCCN)NC(=O)[C@H](CCCNC(=N)N)NC(=O)[C@H](Cc1ccc(O)cc1)NC(=O)[C@H](CO)NC(=O)[C@H](CCC(N)=O)NC(=O)[C@@H](NC(=O)[C@H](Cc1ccccc1)NC(=O)[C@@H](NC(=O)[C@H](C)NC(=O)[C@H](CC(=O)O)NC(=O)[C@@H](C)NC(=O)CCc1ccc(O)cc1)[C@@H](C)CC)[C@@H](C)O)C(C)C)[C@@H](C)CC)C(=O)N[C@@H](CC(=O)O)C(=O)N[C@H](CCCNC(=N)N)C(=O)NC [Peptide P-27401, [Dat^1, D-Ala^2, Gln^8, Orn^12, Abu^15, Orn^21, Nle^27, Asp^28, D-Arg^29]hGH-RH(1-29)NH—CH3] (Desaminotyrosyl-[dA]DAIFTQSYR[Orn]VL[Abu]QLSAR[Orn]LLQDI[Nle]D[dR]-NHMe)

Row | SMILES | IC50 [nM]
6 | CCCC[C@H](NC(=O)[C@@H](NC(=O)[C@H](CC(=O)O)NC(=O)[C@H](CCC(N)=O)NC(=O)[C@H](CC(C)C)NC(=O)[C@H](CC(C)C)NC(=O)[C@H](CCCN)NC(=O)[C@H](CCCNC(=N)N)NC(=O)[C@H](C)NC(=O)[C@H](CO)NC(=O)[C@H](CC(C)C)NC(=O)[C@H](CCC(N)=O)NC(=O)[C@H](CC)NC(=O)[C@H](CC(C)C)NC(=O)[C@@H](NC(=O)[C@H](CCCN)NC(=O)[C@H](CCCNC(=N)N)NC(=O)[C@H](Cc1ccc(O)cc1)NC(=O)[C@H](CO)NC(=O)[C@H](CC(N)=O)NC(=O)[C@@H](NC(=O)[C@H](Cc1c(F)c(F)c(F)c(F)c1F)NC(=O)[C@@H](NC(=O)[C@H](C)NC(=O)[C@H](CC(=O)O)NC(=O)[C@@H](C)NC(=O)[C@H](Cc1ccc(O)cc1)NC)[C@@H](C)CC)[C@@H](C)O)C(C)C)[C@@H](C)CC)C(=O)N[C@@H](CC(=O)O)C(=O)NCCCCNC(=N)N [Peptide P-20359, [N—Me-Tyr^1, D-Ala^2, Fpa5^6, Orn^12, Abu^15, Orn^21, Nle^27, Asp^28, Agm^29]hGH-RH(1-29)] (H-[NMeY][dA]DAI[Phe(F5)]TNSYR[Orn]VL[Abu]QLSAR[Orn]LLQDI[Nle]D-Agmatine) | 3.05
7 | CCCC[C@H](NC(=O)[C@@H](NC(=O)[C@H](CC(=O)O)NC(=O)[C@H](CCC(N)=O)NC(=O)[C@H](CC(C)C)NC(=O)[C@H](CC(C)C)NC(=O)[C@H](CCCN)NC(=O)[C@H](CCCNC(=N)N)NC(=O)[C@H](C)NC(=O)[C@H](CO)NC(=O)[C@H](CC(C)C)NC(=O)[C@H](CCC(N)=O)NC(=O)[C@H](CC)NC(=O)[C@H](CC(C)C)NC(=O)[C@@H](NC(=O)[C@H](CCCN)NC(=O)[C@H](CCCNC(=N)N)NC(=O)[C@H](Cc1ccc(O)cc1)NC(=O)[C@H](CO)NC(=O)[C@H](CC(N)=O)NC(=O)[C@@H](NC(=O)[C@H](Cc1ccccc1)NC(=O)[C@@H](NC(=O)[C@H](C)NC(=O)[C@H](CC(=O)O)NC(=O)[C@@H](C)NC(=O)[C@H](Cc1ccc(O)cc1)NC)[C@@H](C)CC)[C@@H](C)O)C(C)C)[C@@H](C)CC)C(=O)N[C@@H](CC(=O)O)C(=O)NCCCCNC(=N)N [Peptide P-20367, [N—Me-Tyr^1, D-Ala^2, Orn^12, Abu^15, Orn^21, Nle^27, Asp^28, Agm^29]hGH-RH(1-29)] (H-[NMeY][dA]DAIFTNSYR[Orn]VL[Abu]QLSAR[Orn]LLQDI[Nle]D-Agmatine) | 1.7
8 | CCCC[C@H](NC(=O)[C@@H](NC(=O)[C@H](CC(=O)O)NC(=O)[C@H](CCC(N)=O)NC(=O)[C@H](CC(C)C)NC(=O)[C@H](CC(C)C)NC(=O)[C@H](CCCN)NC(=O)[C@H](CCCNC(=N)N)NC(=O)[C@H](C)NC(=O)[C@H](CO)NC(=O)[C@H](CC(C)C)NC(=O)[C@H](CCC(N)=O)NC(=O)[C@H](CC)NC(=O)[C@H](CC(C)C)NC(=O)[C@@H](NC(=O)[C@H](CCCN)NC(=O)[C@H](CCCNC(=N)N)NC(=O)[C@H](Cc1ccc(O)cc1)NC(=O)[C@H](CO)NC(=O)[C@H](CCC(N)=O)NC(=O)[C@@H](NC(=O)[C@H](Cc1ccccc1)NC(=O)[C@@H](NC(=O)[C@H](C)NC(=O)[C@H](CC(=O)O)NC(=O)[C@@H](C)NC(=O)[C@H](Cc1ccc(O)cc1)NC)[C@@H](C)CC)[C@@H](C)O)C(C)C)[C@@H](C)CC)C(=O)N[C@@H](CC(=O)O)C(=O)NCCCCNC(=N)N [Peptide P-20361, [N—Me-Tyr^1, D-Ala^2, Gln^8, Orn^12, Abu^15, Orn^21, Nle^27, Asp^28, Agm^29]hGH-RH(1-29)] (H-[NMeY][dA]DAIFTQSYR[Orn]VL[Abu]QLSAR[Orn]LLQDI[Nle]D-Agmatine) | 0.82
